Experimental data: ChEMBL document CHEMBL6092159, “Design, synthesis, and biological evaluation of novel iNOS inhibitors as potent neuroprotective agents for ischemic stroke” (Eur J Med Chem, 2024)
≈ marks a conversion by molar mass, not a printed value. Calls of active or inactive are those of the source. The rule behind the calls is not given here.

What was measured:
[1] = tested on: SH-SY5Y; test: Neuroprotective effect in human SH-SY5Y cells assessed as reduction in OGD/R-induced damage by measuring increase in cell viability at 10 uM incubated for 3 hrs followed by washout cells cultured in glucose and FBS-free medium measured after 24 hrs by CCK8 assay; type: functional, cell-based
[2] = target: Nitric oxide synthase, inducible (Homo sapiens, UniProt P35228); test: Inhibition of iNOS (unknown origin) assessed as nitric oxide production at 1 uM by hemoglobin capture assay
Sequence of Nitric oxide synthase, inducible (P35228 whole entry): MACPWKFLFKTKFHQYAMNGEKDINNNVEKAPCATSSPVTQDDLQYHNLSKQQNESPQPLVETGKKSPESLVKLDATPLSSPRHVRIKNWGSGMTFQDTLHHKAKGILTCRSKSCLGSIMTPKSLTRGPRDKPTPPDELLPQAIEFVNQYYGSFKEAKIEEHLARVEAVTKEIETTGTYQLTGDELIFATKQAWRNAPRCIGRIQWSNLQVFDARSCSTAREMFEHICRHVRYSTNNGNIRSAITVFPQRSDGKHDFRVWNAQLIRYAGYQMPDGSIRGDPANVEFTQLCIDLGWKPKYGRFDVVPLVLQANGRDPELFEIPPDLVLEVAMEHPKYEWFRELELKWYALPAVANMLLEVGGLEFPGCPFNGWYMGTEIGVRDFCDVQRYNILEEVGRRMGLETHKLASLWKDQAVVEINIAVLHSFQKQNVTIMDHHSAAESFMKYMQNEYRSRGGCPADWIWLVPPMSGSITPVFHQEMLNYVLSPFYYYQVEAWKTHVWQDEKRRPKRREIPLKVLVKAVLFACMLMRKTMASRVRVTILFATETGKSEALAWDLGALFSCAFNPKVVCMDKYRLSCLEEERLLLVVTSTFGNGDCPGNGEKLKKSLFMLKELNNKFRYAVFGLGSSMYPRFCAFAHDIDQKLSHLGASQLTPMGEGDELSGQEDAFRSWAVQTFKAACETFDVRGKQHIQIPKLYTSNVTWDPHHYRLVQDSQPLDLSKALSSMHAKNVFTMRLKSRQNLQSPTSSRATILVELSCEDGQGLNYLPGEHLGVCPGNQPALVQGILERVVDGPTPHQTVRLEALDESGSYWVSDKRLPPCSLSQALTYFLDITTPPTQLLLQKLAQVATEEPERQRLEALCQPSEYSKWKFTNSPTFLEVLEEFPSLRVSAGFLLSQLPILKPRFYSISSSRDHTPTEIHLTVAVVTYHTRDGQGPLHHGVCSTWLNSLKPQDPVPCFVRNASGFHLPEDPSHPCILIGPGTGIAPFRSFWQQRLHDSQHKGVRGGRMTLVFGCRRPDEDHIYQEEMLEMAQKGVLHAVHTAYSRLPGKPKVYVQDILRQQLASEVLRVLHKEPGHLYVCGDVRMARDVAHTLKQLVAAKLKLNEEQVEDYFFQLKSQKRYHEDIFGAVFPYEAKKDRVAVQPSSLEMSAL

[3] = tested on: BV-2; test: Neuroprotective effect in mouse BV-2 cells assessed as reduction in OGD/R-induced damage by measuring increase in cell viability at 10 uM incubated for 3 hrs followed by washout cells cultured in glucose and FBS-free medium measured after 24 hrs by CCK8 assay; type: functional, cell-based
[4] = tested on: SH-SY5Y; test: Antioxidant activity in human SH-SY5Y cells assessed as reduction in OGD/R-induced LDH level at 1 uM incubated for 3 hrs followed by washout cells cultured in glucose and FBS-free medium measured after 24 hrs by colorimetric assay; type: functional, cell-based
[5] = tested on: SH-SY5Y; test: Neuroprotective effect in human SH-SY5Y cells assessed as reduction in OGD/R-induced damage by measuring increase in cell viability at 1 uM incubated for 3 hrs followed by washout cells cultured in glucose and FBS-free medium measured after 24 hrs by CCK8 assay; type: functional, cell-based
[6] = tested on: Rattus norvegicus; test: (§1) Anti-cerebral ischemia activity in rat tMCAO (transient middle cerebral artery occlusion) model assessed as reduction in cerebral infarct area at 9.98 mg/kg, iv treated after 2 hrs ischemia followed by reperfusion measured after 24 hrs of post-reperfusion by single-dose experiment; type: functional, organism-based; conditions: time 26.0 hrs
[7] = Tmax in Sprague-Dawley rat at 10 mg/kg, iv measured after 24 hrs by LC-MS/MS analysis; type: ADME, organism-based; conditions: in vivo
[8] = target: T1, Nitric oxide synthase 3 (Homo sapiens) (UniProt P29474); test: Inhibition of eNOS (unknown origin) assessed as nitric oxide production 1 uM by hemoglobin capture assay
T1 sequence (whole entry): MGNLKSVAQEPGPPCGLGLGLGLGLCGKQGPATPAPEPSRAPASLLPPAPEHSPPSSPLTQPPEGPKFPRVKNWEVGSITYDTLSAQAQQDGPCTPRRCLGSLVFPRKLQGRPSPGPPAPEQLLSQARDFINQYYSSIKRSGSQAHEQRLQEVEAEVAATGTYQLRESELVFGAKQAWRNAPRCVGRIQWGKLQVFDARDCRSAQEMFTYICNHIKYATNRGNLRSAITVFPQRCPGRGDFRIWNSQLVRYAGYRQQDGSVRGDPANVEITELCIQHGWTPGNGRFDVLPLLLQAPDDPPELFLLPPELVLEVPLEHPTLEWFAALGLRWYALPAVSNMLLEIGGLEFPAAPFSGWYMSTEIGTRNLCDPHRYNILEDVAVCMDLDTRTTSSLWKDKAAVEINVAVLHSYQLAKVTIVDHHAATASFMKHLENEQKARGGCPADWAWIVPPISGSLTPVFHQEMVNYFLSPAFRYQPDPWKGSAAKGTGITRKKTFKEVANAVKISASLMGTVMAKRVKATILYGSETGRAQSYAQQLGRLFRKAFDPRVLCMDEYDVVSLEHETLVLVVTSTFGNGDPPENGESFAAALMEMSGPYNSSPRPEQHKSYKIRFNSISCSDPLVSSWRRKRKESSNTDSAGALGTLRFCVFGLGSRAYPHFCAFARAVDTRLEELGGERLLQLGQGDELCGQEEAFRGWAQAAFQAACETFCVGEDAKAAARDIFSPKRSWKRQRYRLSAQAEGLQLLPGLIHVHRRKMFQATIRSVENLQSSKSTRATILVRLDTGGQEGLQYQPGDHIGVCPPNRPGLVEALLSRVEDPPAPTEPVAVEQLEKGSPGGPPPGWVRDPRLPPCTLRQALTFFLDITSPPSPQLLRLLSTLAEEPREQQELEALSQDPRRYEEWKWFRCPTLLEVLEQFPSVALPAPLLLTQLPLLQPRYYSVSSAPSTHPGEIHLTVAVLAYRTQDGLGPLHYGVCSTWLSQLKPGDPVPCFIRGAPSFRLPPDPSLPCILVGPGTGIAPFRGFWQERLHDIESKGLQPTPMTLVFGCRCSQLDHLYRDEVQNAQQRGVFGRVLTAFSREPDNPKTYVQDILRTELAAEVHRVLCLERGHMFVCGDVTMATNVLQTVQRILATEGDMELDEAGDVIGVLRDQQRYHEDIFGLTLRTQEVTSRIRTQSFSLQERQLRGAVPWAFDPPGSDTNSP

[9] = Clearance in Sprague-Dawley rat at 10 mg/kg, iv measured after 24 hrs by LC-MS/MS analysis; type: ADME, organism-based; conditions: in vivo
[10] = Apparent volume of distribution in Sprague-Dawley rat at 10 mg/kg, iv measured after 24 hrs by LC-MS/MS analysis; type: ADME, organism-based; conditions: in vivo, read-out: Vz
[11] = MRT (0 to infinity) in Sprague-Dawley rat at 10 mg/kg, iv measured after 24 hrs by LC-MS/MS analysis; type: ADME, organism-based; conditions: in vivo
[12] = tested on: SH-SY5Y; test: Antioxidant activity in human SH-SY5Y cells assessed as reduction in OGD/R-induced ROS level at 1 uM incubated for 3 hrs followed by washout cells cultured in glucose and FBS-free medium measured after 24 hrs by DCFH-DA probe based fluorescence microscopy assay; type: functional, cell-based
[13] = tested on: Rattus norvegicus; test: Anti-cerebral ischemia activity in rat tMCAO (transient middle cerebral artery occlusion) model assessed as reduction in cerebral infarct area in presence of NBP at 6.58 mg/kg, iv treated after 2 hrs ischemia followed by reperfusion measured after 24 hrs of post-reperfusion by single-dose experiment; type: functional, organism-based; conditions: time 26.0 hrs
[14] = Ratio of drug concentration male Sprague-Dawley rat brain to blood at 3.4 mg/kg, iv measured after 24 hrs by LC-MS/MS analysis; type: ADME, organism-based
[15] = tested on: SH-SY5Y; test: […] effect in human SH-SY5Y cells assessed as reduction in OGD/R-induced caspase-3 activity using substrate GreenNuc Caspase-3 Substrate is a peptide DEVD coupled with a DNA green fluorescent dye at 1 uM incubated for 3 hrs followed by washout cells cultured in glucose and FBS-free medium measured after 24 hrs by […] assay; type: functional, cell-based
[16] = MRT (0 to t) in Sprague-Dawley rat at 10 mg/kg, iv measured after 24 hrs by LC-MS/MS analysis; type: ADME, organism-based; conditions: in vivo
[17] = tested on: Rattus norvegicus; test: Anti-cerebral ischemia activity in rat tMCAO (transient middle cerebral artery occlusion) model assessed as reduction in cerebral infarct area at 6.58 mg/kg, iv treated after 2 hrs ischemia followed by reperfusion measured after 24 hrs of post-reperfusion by single-dose experiment; type: functional, organism-based; conditions: time 26.0 hrs
[18] = target: Nitric oxide synthase 1 (Homo sapiens) (UniProt P29475); test: Inhibition of nNOS (unknown origin) assessed as nitric oxide production 1 uM by hemoglobin capture assay
Sequence of Nitric oxide synthase 1 (Homo sapiens) (P29475 whole entry): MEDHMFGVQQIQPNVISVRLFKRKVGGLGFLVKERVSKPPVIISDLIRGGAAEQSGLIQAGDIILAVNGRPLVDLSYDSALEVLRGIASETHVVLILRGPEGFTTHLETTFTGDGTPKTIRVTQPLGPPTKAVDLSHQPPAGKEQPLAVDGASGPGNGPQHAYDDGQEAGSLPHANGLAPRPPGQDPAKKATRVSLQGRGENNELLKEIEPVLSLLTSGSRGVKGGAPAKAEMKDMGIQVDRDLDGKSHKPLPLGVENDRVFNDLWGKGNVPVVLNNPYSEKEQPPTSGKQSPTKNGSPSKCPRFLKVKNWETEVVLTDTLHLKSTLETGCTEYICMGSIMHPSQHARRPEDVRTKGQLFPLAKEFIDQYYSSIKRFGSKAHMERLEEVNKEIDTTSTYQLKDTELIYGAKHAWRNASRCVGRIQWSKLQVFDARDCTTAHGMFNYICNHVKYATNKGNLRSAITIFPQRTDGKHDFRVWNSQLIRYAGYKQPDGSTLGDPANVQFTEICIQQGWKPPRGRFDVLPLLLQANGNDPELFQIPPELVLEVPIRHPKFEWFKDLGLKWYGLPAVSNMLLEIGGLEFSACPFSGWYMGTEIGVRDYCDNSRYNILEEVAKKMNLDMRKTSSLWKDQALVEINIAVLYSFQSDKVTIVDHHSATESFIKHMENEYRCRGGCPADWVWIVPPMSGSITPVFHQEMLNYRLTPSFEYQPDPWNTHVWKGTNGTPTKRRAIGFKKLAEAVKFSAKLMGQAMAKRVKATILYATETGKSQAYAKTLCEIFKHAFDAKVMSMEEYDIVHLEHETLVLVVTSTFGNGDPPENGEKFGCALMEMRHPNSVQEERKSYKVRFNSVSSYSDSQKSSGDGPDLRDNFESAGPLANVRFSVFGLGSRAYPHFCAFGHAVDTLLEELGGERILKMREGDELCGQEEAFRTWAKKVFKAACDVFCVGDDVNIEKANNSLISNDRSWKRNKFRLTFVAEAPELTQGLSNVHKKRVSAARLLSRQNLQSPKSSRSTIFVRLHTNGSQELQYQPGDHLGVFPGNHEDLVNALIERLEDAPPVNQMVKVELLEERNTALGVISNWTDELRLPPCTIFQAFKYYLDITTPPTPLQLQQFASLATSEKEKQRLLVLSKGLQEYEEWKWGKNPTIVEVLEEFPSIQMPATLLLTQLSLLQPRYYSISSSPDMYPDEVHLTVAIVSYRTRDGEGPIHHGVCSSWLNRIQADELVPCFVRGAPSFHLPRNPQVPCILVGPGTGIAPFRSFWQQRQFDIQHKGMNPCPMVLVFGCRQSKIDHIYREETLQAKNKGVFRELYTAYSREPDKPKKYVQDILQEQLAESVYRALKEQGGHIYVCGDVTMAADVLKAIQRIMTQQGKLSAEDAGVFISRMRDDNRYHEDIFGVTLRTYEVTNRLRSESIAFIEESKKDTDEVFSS

[19] = tested on: Rattus norvegicus; test: as §1, with “9.61” for “9.98”, “measuring turn left counts test based multiple-dose” for “single-dose”, “experiment relative to MCAO group” for “experiment”; type: functional, organism-based
[20] = tested on: Rattus norvegicus; test: (§2) Anti-cerebral ischemia activity in rat tMCAO (transient middle cerebral artery occlusion) model assessed as reduction in cerebral infarct area at 9.61 mg/kg, iv treated after 2 hrs ischemia followed by reperfusion measured after 24 hrs of post-reperfusion by single-dose experiment; type: functional, organism-based; conditions: time 26.0 hrs
[21] = tested on: Rattus norvegicus; test: as §2, with “72” for “24”, “measuring modified neurological severity score (mNSS) test based multiple-dose” for “single-dose”, “experiment relative to MCAO group” for “experiment”; type: functional, organism-based
[22] = Solubility of the compound by HPLC based dissolution test; type: physicochemical
[23] = Metabolic stability in rat liver microsomes assessed as half life; type: ADME, Microsome
[24] = Half life in Sprague-Dawley rat at 10 mg/kg, iv measured after 24 hrs by LC-MS/MS analysis; type: ADME, organism-based; conditions: in vivo
[25] = tested on: Rattus norvegicus; test: as §2, with “24 to 72” for “24”, “TTC staining based multiple-dose” for “single-dose”; type: functional, organism-based; conditions: time 26-74 hrs
[26] = Stability in rat plasma assessed as half life; type: ADME, cell-free
[27] = tested on: Rattus norvegicus; test: as §2, with “measuring modified neurological severity score (mNSS) test based multiple-dose” for “single-dose”, “experiment relative to MCAO group” for “experiment”; type: functional, organism-based
[28] = tested on: Rattus norvegicus; test: as §2, with “72” for “24”, “measuring turn left counts test based multiple-dose” for “single-dose”, “experiment relative to MCAO group” for “experiment”; type: functional, organism-based
[29] = Ratio of drug concentration male Sprague-Dawley rat brain to blood at 5 mg/kg, iv measured after 24 hrs by LC-MS/MS analysis; type: ADME, organism-based
[30] = tested on: Rattus norvegicus; test: (§3) Anti-cerebral ischemia activity in rat tMCAO (transient middle cerebral artery occlusion) model assessed as reduction in cerebral infarct area at 5 mg/kg, iv treated after 2 hrs ischemia followed by reperfusion measured after 24 hrs of post-reperfusion by single-dose experiment; type: functional, organism-based; conditions: time 26.0 hrs
[31] = tested on: Rattus norvegicus; test: Anti-cerebral ischemia activity in rat tMCAO (transient middle cerebral artery occlusion) model assessed as reduction in cerebral infarct area in presence of 1400W at 5 mg/kg, iv treated after 2 hrs ischemia followed by reperfusion measured after 24 hrs of post-reperfusion by single-dose experiment; type: functional, organism-based; conditions: time 26.0 hrs
[32] = tested on: Rattus norvegicus; test: as §3, with “24 to 72” for “24”, “TTC staining based multiple-dose” for “single-dose”; type: functional, organism-based; conditions: time 26-74 hrs

For `CCCCC1OC(=O)c2cc(NC(=O)c3cccc(NC(C)=N)c3)ccc21` (centres undefined), the Activity [1] was “Active” and the IC50 [2] was 0.474 µM.

In the case of `CCCCC1OC(=O)c2cc(NC(=O)c3cccc(CNC(C)=N)c3)ccc21` (centres undefined), the Activity [3] is reported as “Active; Compound Exhibit Similar Protective Effects As Nbp And 1400W”, the Activity [4] is reported as “Active” and the Activity [1] is reported as “Active”. The Activity [5] was “Active; Compound Demonstrating Comparable Protective Effects To Nbp And 1400W”, the IC50 [2] was 0.245 µM and the Activity [6] was “Active”.

For `CCCCC1OC(=O)c2cc(NCc3cccc(NC(C)=N)c3)ccc21` (centres undefined), the Activity [1] was “Active” and the IC50 [2] was 0.275 µM.

For `CC(=N)NCc1cccc(CN)c1` [1400W], the Tmax [7] was 4.98 min, the Activity [8] was “inactive” and the CL [9] was 5.407 L/h/kg. For the same compound, the Vd [10] was 21.7 L/kg, the MRT inf [11] was 1.11 h and the Activity [4] was “Active”. For the same compound, the Activity [12] was “Active”, the Activity [13] was “Active” and the BBR [14] was 10.96%. For the same compound, the Activity [15] was “Active”, the MRT last at 24 h [16] was 0.96 h and the Activity [17] was “Active”.

For `CCCCC1OC(=O)c2cc(NCc3cccc(CNC(C)=N)c3)ccc21` (centres undefined), the inhibition [18] was 3.64%, the Tmax [7] was 4.98 min and the Activity [8] was “inactive”. For the same compound, the CL [9] was 4.28 L/h/kg, the Activity [19] was “Active” and the Activity [20] was “Active”. The Activity [21] was “Active”, the solubility [22] was 30 mg/mL (≈ 82.1 mM) and the half-life [23] was 2 h. For the same compound, the Activity [3] was “Active; Compound Exhibit Similar Protective Effects As Nbp And 1400W”, the half-life [24] was 5.21 h and the Vd [10] was 32.4 L/kg. The MRT inf [11] was 1.91 h, the Activity [4] was “Active” and the Activity [1] was “Active”. The Activity [25] was “Active; Efficacy Of Compound Superior Than Nbp Group”, the half-life [26] was 23 h and the Activity [12] was “Active”. For the same compound, the Activity [5] was “Active; Compound Demonstrating Comparable Protective Effects To Nbp And 1400W”, the Activity [27] was “Active” and the Activity [15] was “Active”. For the same compound, the Activity [28] was “Active”, the IC50 [2] was 0.171 µM and the MRT last at 24 h [16] was 1.62 h. For the same compound, the BBR [29] was 27.36%.

With `CCCCC1OC(=O)c2ccccc21` (racemic) [RAC-3-N-BUTYLPHTHALIDE] the solubility [22] was 0.25 mg/mL (≈ 1.31 mM), the Activity [30] was “Active” and the Activity [4] was “Active”. For the same compound, the Activity [12] was “Active”, the Activity [31] was “Active” and the Activity [32] was “Active”. For the same compound, the Activity [15] was “Active”.
